Laboratory results reported in patent US12258554B2 (priority 2014, dated 2025).
Values joined by “and” are separate entries in the source; they are usually repeats but may differ in a detail not shown here. Identical values can stand only once. Like-named read-outs stand apart in the source and are kept apart here. Where a SMILES comes first, the peptide text is derived from it. Bridges are numbered along the chain shown (N, C = ends). [ ]: non-standard residue; d: D form. The star is where a group is joined. ξ: configuration not given here. Pentadecanoyl(3ξ-OH,15-Gua) = N=C(N)NCCCCCCCCCCCCC(O)CC(=O)*; d(aThr) = C[C@@H](O)[C@@H](N)C(=O)O; Thr(3ξ) = CC(O)[C@H](N)C(=O)O; ξY = NC(Cc1ccc(O)cc1)C(=O)O

Legend:
[1] = tested on: Phytophthora infestans (PHYTIN); format: in vivo; conditions: for % efficacy (% fungal attack): late blight on tomato, protective application, metabolite conc. 7.2 ppm, visually assessed 5-7 days after inoculation; for % efficacy PHYTIN: in planta, 360 ppm, assessed 5-7 days after inoculation
[2] = tested on: Fusarium graminearum (GIBBZE); format: in vivo; conditions: for % efficacy (% fungal attack): head blight on wheat, protective application, metabolite conc. 360 ppm, visually assessed 5-7 days after inoculation
[3] = tested on: Alternaria solani (ALTESO); assay: Fungal growth assay in 96 well plates; format: cell-based; conditions: OD 600 nm, YBG, about 18° C.
Procedure: (§1) Fungal growth assays were performed in 96 well plates with spore suspension of the pathogen Botrytis cinerea (BOTRCI, in YBA [10 g Bacto peptone (Becton Dickinson 211677), 10 g yeast extract (Becton Dickinson 212750), 20 g sodium acetate, ad 1000 mL aqua bidest] or Alternaria solani (ALTESO, in YBG [10 g Bacto peptone (Becton Dickinson 211677), 10 g yeast extract (Becton Dickinson 212750), 20 g glycerine 99%, ad 1000 mL aqua bidest]). Fusaricidins and compounds 1A and 1B were dissolved and diluted in DMSO. Different concentrations ranging from 60 μM down to 0.3 μM were pipetted into the microtiter plate. An aqueous suspension of 10^4 spores/ml was added. The plates were incubated at about 18° C. Fungal growth was determined by measuring the optical density at 600 nm in a microplate reader 3 and 7 days after the inoculation of the spores and compared to the untreated control (DMSO). IC50 (concentration [μM] of the respective metabolite required for 50% inhibition of fungal growth) has been determined thereafter.

[4] = tested on: Botrytis cinerea (BOTRCI); assay: Fungal growth assay in 96 well plates; format: cell-based; conditions: evaluation 7 d after inoculation, OD 600 nm, YBA, about 18° C.; read-out: Fungal growth inhibition (IC50) BOTRCI (7d)
Procedure: as §1

[5] = tested on: clinically relevant fungi and gram-positive bacteria such a Staphylococcus aureus; conditions: ChemMedChem 7, 871-882, 2012; cited from earlier work
[6] = tested on: Botrytis cinerea (BOTRCI); conditions: in vivo
[7] = tested on: Alternaria solani (ALTESO); conditions: in vivo
[8] = tested on: Phakopsora pachyrhizi (PHAKPA); conditions: in vivo
[9] = tested on: important fungal diseases on crop plants; format: in vivo; conditions: metabolites; for controlling important fungal diseases on crop plants: dose levels as low as 7.2 ppm; for antifungal efficacy compared with Fusaricidin A, B and D: glasshouse trials
[10] = tested on: Septoria tritici (SEPTTR); assay: Glasshouse test, speckled leaf blotch on wheat, protective application; format: in vivo; conditions: metabolite conc. 360 ppm
Procedure: Commercially available young wheat seedlings were used for the described greenhouse trial. 2 replications (pots with 1 plant each) were used per treatment. Plants were grown in commercially available substrate (Universal, Floragard) at approx. 22° C. in the greenhouse. The humidity was controlled using a special device (˜90% humidity). The plants were sprayed to runoff with crude culture broth of 2-6 days old cultures of Paenibacillus spp. (depending on the setup) using a spray cabinet. Culture conditions are described in Example 3. One day after application the treated plants were inoculated with a suspension of spores of Septoria tritici (SEPTTR). After inoculation, the trial plants were immediately transferred to a humid chamber. The extent of fungal attack on the leaves was visually assessed 21-28 days after inoculation.

[11] = evaluation 3 d after inoculation, read-out: Fungal growth inhibition (IC50) ALTESO (3 d)
[12] = evaluation 7 d after inoculation, read-out: Fungal growth inhibition (IC50) ALTESO (7 d)

| SMILES | % efficacy (% fungal attack) [1] | % efficacy (% fungal attack) [2] | IC50 [3, 11] | IC50 [3, 12] | IC50 [4] | MIC value range [5] | % efficacy PHYTIN [1] | % efficacy BOTRCI [6] | % efficacy ALTESO [7] | % efficacy PHAKPA [8] | % efficacy GIBBZE ([2]; in planta, 360 ppm, assessed 5-7 days after inoculation) | controlling important fungal diseases on crop plants [9] | antifungal efficacy compared with Fusaricidin A, B and D [9] | % efficacy (% fungal attack) [10] |
| --- | --- | --- | --- | --- | --- | --- | --- | --- | --- | --- | --- | --- | --- | --- |
| CC(C)[C@@H]1NC(=O)[C@@H](C(C)C)NC(=O)[C@@H](NC(=O)CC(O)CCCCCCCCCCCCN=C(N)N)[C@@H](C)OC(=O)[C@@H](C)NC(=O)[C@@H](CC(N)=O)NC(=O)[C@@H]([C@@H](C)O)NC1=O (stereo partly shown) [Compound 5A, fusaricidin A] ({Pentadecanoyl(3ξ-OH,15-Gua)}-T[dV]V[d(aThr)][dN][dA]; ester 1-C) | 15% | 31% | 1300 nM | 700 nM | 500 nM | 0.78 to 3.12 µg/mL |  |  |  |  |  |  |  |  |
| CC(C)[C@@H]1NC(=O)[C@@H](C(C)C)NC(=O)[C@@H](NC(=O)CC(O)CCCCCCCCCCCCN=C(N)N)C(C)OC(=O)[C@@H](C)NC(=O)[C@@H](CCC(N)=O)NC(=O)[C@@H]([C@H](C)O)NC1=O (stereo in doubt) [Compound 5B, fusaricidin B] | 4% | 0% | 1100 nM | 600 nM | 600 nM |  |  |  |  |  |  |  |  |  |
| CCC(C)C1NC(=O)C(NC(=O)CC(O)CCCCCCCCCCCCNC(=N)N)C(C)OC(=O)C(C)NC(=O)C(CC(N)=O)NC(=O)C(C(C)O)NC(=O)C(Cc2ccc(O)cc2)NC1=O (stereo not shown) [Compound 1A] ({Pentadecanoyl(3ξ-OH,15-Gua)}-TIYTNA; ester 1-C; configuration not given here) |  | 49% | 600 nM | 500 nM | 300 nM |  | 100% | 99% and 97% | 74% | 95% | 49% | effective | higher antifungal efficacy than Fusaricidin A, B and D |  |
| CC1OC(=O)[C@@H](C)NC(=O)[C@@H](CCC(N)=O)NC(=O)[C@@H]([C@H](C)O)NC(=O)C(Cc2ccc(O)cc2)NC(=O)[C@@H](C(C)C)NC(=O)[C@H]1NC(=O)CC(O)CCCCCCCCCCCCN=C(N)N (stereo partly shown) [Compound 2B, fusaricidin D] ({Pentadecanoyl(3ξ-OH,15-Gua)}-[Thr(3ξ)][dV][ξY][dT][dQ][dA]; ester 1-C) | 0% |  | 1100 nM | 600 nM | 500 nM |  |  |  |  |  |  |  |  | 50% |
| CCC(C)C1NC(=O)C(NC(=O)CC(O)CCCCCCCCCCCCNC(=N)N)C(C)OC(=O)C(C)NC(=O)C(CCC(N)=O)NC(=O)C(C(C)O)NC(=O)C(Cc2ccc(O)cc2)NC1=O (stereo not shown) [Compound 1B] ({Pentadecanoyl(3ξ-OH,15-Gua)}-TIYTQA; ester 1-C; configuration not given here) | 44% |  | 600 nM | 400 nM | 400 nM |  | 100% | 97% and 100% |  | 97% |  | effective | higher antifungal efficacy than Fusaricidin A, B and D | 80% |
